The values below come from patent US11168073B2, “3,3-difluoroallylamines or salts thereof and pharmaceutical compositions comprising the same” (YUHAN CORPORATION, priority 2018, dated 2021).

In general, IC50 refers to the concentration at which inhibition is half-maximal.

Format in all cases: biochemical
Assay [1] concerns the target T1, recombinant human DAO (diamine oxidase) (Homo sapiens, UniProt P19801).
T1 construct: purchased R&D systems
T1 sequence (P19801 20-751): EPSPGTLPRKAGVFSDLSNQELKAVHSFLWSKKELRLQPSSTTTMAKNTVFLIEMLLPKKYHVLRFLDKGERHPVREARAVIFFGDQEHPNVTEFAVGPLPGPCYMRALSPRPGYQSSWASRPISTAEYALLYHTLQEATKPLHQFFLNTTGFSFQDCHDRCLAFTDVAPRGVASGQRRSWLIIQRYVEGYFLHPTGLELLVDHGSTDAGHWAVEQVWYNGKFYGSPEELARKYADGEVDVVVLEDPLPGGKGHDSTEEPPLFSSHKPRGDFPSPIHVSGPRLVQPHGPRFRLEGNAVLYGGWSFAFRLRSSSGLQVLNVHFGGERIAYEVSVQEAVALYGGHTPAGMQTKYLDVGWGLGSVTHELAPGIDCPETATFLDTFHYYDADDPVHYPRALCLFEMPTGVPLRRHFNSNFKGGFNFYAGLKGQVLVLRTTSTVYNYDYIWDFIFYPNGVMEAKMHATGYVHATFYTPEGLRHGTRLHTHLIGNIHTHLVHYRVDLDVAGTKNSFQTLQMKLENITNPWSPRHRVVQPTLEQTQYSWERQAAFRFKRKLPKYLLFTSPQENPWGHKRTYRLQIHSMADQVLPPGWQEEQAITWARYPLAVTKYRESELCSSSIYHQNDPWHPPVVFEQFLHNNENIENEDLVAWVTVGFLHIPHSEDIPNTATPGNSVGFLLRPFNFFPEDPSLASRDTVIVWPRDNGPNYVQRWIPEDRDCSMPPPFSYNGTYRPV
The assay can be described thus: Activity evaluation on recombinant human DAO (Amplex Red/HRP-coupled assay, 1 mM putrescine substrate). To be noted: read-out: Inhibitory Activity (IC50, nM) DAO. The method, boiled down: (§1)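 Using an HRP-coupled Amplex Red readout (544/590 nm, kinetic over 1–2 h), IC50 values were fitted by 4-parameter logistic model to percent decrease in signal rate against DMSO control. Compounds (1:3 dilutions, 8 points, <1% DMSO) sat 30 min at 37 °C with enzyme in pH 7.4 phosphate buffer before substrate, 200 uM Amplex Red and HRP were added.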

For assay [2], the target named is T2, recombinant human MAO-A (monoamine oxidase-A) (Homo sapiens, UniProt P21397).
T2 construct: purchased Sigma-Aldrich
T2 sequence (P21397 1-527): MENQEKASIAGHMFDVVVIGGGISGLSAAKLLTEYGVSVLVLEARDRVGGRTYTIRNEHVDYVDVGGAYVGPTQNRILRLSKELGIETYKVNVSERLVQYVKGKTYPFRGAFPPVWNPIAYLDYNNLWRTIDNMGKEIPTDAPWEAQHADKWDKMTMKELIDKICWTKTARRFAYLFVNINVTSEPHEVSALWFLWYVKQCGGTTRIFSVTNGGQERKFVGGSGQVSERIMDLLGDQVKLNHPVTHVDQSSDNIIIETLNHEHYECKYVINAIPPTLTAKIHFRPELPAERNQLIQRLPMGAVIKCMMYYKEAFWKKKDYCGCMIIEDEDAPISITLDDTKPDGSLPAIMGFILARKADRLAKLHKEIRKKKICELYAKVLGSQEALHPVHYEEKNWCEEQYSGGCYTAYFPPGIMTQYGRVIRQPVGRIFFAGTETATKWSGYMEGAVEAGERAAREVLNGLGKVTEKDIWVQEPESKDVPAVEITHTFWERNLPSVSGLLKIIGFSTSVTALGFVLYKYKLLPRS
The assay can be described thus: Activity evaluation on recombinant human MAO-A (Amplex Red/HRP-coupled assay, 0.5 mM tyramine substrate). To be noted: read-out: Inhibitory Activity (IC50, nM) MAO-A. The method, boiled down: as §1

Assay [3] addresses T3, recombinant human MAO-B (monoamine oxidase-B) (Homo sapiens, UniProt P27338).
T3 construct: purchased Sigma-Aldrich
T3 sequence (P27338 1-520): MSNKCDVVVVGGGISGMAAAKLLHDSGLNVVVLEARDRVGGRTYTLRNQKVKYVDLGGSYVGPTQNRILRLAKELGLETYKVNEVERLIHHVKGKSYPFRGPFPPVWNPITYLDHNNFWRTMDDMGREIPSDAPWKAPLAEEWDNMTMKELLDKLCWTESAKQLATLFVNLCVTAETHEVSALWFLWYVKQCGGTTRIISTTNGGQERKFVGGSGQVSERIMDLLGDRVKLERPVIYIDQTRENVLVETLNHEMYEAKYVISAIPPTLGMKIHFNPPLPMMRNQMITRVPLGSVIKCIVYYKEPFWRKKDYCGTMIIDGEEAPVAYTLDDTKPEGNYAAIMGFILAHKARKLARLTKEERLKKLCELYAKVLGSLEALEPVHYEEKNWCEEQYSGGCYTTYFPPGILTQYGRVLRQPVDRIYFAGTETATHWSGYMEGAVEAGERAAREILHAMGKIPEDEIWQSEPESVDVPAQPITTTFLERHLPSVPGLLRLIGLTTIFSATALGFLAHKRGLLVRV
As to the kind of experiment: Activity evaluation on recombinant human MAO-B (Amplex Red/HRP-coupled assay, 1 mM benzylamine substrate). To be noted: read-out: Inhibitory Activity (IC50, nM) MAO-B. The method, boiled down:
as §1

The target of another assay is T4, recombinant human VAP-1 (Homo sapiens, UniProt Q16853).
T4 construct: purchased R&D systems
T4 sequence (Q16853 1-763): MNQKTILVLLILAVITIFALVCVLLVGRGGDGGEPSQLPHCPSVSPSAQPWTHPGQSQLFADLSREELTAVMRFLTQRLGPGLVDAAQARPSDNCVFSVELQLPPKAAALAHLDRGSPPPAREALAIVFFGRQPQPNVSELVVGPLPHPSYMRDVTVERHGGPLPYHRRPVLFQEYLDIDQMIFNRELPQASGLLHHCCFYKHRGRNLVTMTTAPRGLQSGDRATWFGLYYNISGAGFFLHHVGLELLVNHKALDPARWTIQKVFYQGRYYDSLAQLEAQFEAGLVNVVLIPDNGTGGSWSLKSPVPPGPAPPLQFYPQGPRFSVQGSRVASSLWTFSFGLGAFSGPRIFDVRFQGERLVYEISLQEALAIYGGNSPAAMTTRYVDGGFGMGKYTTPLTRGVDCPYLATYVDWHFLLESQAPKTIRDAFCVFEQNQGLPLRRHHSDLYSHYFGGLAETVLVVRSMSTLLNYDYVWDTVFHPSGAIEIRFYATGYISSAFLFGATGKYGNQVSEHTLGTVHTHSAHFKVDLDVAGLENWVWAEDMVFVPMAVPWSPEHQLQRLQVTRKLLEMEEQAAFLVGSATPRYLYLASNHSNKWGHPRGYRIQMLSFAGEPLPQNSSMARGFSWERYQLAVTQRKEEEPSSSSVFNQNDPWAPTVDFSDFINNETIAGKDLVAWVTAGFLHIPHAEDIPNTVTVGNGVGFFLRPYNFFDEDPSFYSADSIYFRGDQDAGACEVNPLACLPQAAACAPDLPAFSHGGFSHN
As to the kind of experiment: Activity evaluation on recombinant human VAP-1 (Amplex Red/HRP-coupled hydrogen peroxide assay, benzylamine substrate). To be noted: read-out: Inhibitory Activity (IC50, nM) human VAP-1. Summed up: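 Hydrogen peroxide from benzylamine (1 mM) oxidation by human recombinant VAP-1 detected via HRP-coupled Amplex Red (200 uM) fluorescence, kinetic over 1–2 h. Enzyme and compound preincubated 30 min at 37 °C, pH 7.4 phosphate; 8-point dose response, signal-rate decrease versus DMSO control fitted to four-parameter logistic for IC50.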

[4] abbreviates: recombinant human VAP-1, 30 min preincubation at 37° C., 1 mM benzylamine.
[5] abbreviates: recombinant human VAP-1, benzylamine substrate.

Structures can show the parent of a compound that is named as a salt. Where two headings read alike, the source gives them in different places.

In the case of `NCC(Cn1ncn(Cc2cc(-c3ccc4c(c3)OCO4)cs2)c1=O)=C(F)F` [Example 150, 2-[2-(aminomethyl)-3,3-difluoro-allyl]-4-[[4-(1,3-benzodioxol-5-yl)-2-thienyl]methyl]-1,2,4-triazol-3-one Trifluoroacetate], the 50% inhibitory concentration (IC50) in assay [1] (1 mM putrescine) was > 10000 nM; in assay [2] (0.5 mM tyramine), > 100000 nM; in assay [3] (1 mM benzylamine), 2800 nM; at recombinant human VAP-1 (setting [4]), 2.9 nM.
Take `Cc1cc(-c2ccc(Cn3cnn(CC(CN)=C(F)F)c3=O)cc2)cc2c1NC(=O)CC2` [Example 269, 6-[4-[[1-[2-(aminomethyl)-3,3-difluoro-allyl]-5-oxo-1,2,4-triazol-4-yl]methyl]phenyl]-8-methyl-3,4-dihydro-1H-quinolin-2-one Trifluoroacetate]: the concentration for half-maximal inhibition (IC50) was 71000 nM in assay [1] (1 mM putrescine substrate), > 100000 nM in assay [2] (0.5 mM tyramine substrate), > 100000 nM in assay [3] (1 mM benzylamine substrate) and 1 nM at recombinant human VAP-1 (setting [5]).
On to `Cc1cc(-n2cnn(CC(CN)=C(F)F)c2=O)cnc1-c1ccc(C(F)(F)F)nc1` [Example 77, 2-[2-(aminomethyl)-3,3-difluoro-allyl]-4-[5-methyl-6-[6-(trifluoromethyl)-3-pyridyl]-3-pyridyl]-1,2,4-triazol-3-one Trifluoroacetate], for which the concentration for half-maximal inhibition (IC50) was 10 nM in assay [1] (1 mM putrescine), > 100000 nM in assay [2] (0.5 mM tyramine), 1600 nM in assay [3] (1 mM benzylamine) and 1 nM at recombinant human VAP-1 (setting [4]).
Turning to `CS(=O)(=O)c1ccc(-c2ccccc2Cn2cnn(CC(CN)=C(F)F)c2=O)cc1` [Example 279, 2-[2-(aminomethyl)-3,3-difluoro-allyl]-4-[[2-(4-methylsulfonylphenyl)phenyl]methyl]-1,2,4-triazol-3-one Trifluoroacetate], the IC50 is > 100000 nM in assay [1] (1 mM putrescine substrate), > 100000 nM in assay [2] (0.5 mM tyramine substrate), > 100000 nM in assay [3] (1 mM benzylamine substrate) and > 100 nM on recombinant human VAP-1 (setting [5]).
In the case of `Cn1cc(C#Cc2ccc(Cn3cnn(CC(CN)=C(F)F)c3=O)s2)cn1` [Example 171, 2-[2-(aminomethyl)-3,3-difluoro-allyl]-4-[[5-[2-(1-methylpyrazol-4-yl)ethynyl]-2-thienyl]methyl]-1,2,4-triazol-3-one Trifluoroacetate], the IC50 was > 100000 nM in assay [1] (1 mM putrescine), > 100000 nM in assay [2] (0.5 mM tyramine), 50000 nM in assay [3] (1 mM benzylamine) and 1.8 nM on recombinant human VAP-1 (setting [4]).
As to `NCC(Cn1ncn(Cc2ccc(-c3ccc(N4CCNCC4)cc3)s2)c1=O)=C(F)F` [Example 106, 2-[2-(aminomethyl)-3,3-difluoro-allyl]-4-[[5-(4-piperazin-1-ylphenyl)-2-thienyl]methyl]-1,2,4-triazol-3-one Ditrifluoroacetate], the IC50 in assay [1] (1 mM putrescine) was 860 nM; in assay [2] (0.5 mM tyramine) it was > 100000 nM; in assay [3] (1 mM benzylamine) it was > 100000 nM; on recombinant human VAP-1 (setting [4]) it was 4.7 nM.
Take `CN(C)c1ccc(-c2ccc(-n3cnn(CC(CN)=C(F)F)c3=O)c(F)c2)cn1` [Example 34, 2-[2-(aminomethyl)-3,3-difluoro-allyl]-4-[4-[6-(dimethylamino)-3-pyridyl]-2-fluoro-phenyl]-1,2,4-triazol-3-one Trifluoroacetate]: the IC50 in assay [1] (1 mM putrescine) is 250 nM; in assay [2] (0.5 mM tyramine) it was 27000 nM; in assay [3] (1 mM benzylamine), 770 nM; on recombinant human VAP-1 (setting [4]) it was 0.3 nM.
Turning to `CS(=O)(=O)n1cc(-c2ccc(Cn3cnn(CC(CN)=C(F)F)c3=O)s2)cn1` [Example 293, 2-[2-(aminomethyl)-3,3-difluoro-allyl]-4-[[5-(1-methylsulfonylpyrazol-4-yl)-2-thienyl]methyl]-1,2,4-triazol-3-one Trifluoroacetate], the half-inhibitory concentration (IC50) in assay [1] (1 mM putrescine substrate) was 25300 nM; in assay [2] (0.5 mM tyramine substrate) it was > 100000 nM; in assay [3] (1 mM benzylamine substrate), > 100000 nM; at recombinant human VAP-1 (setting [5]), 2.4 nM.
Regarding `CCn1cc(-c2ccc(-c3cnc(-n4cnn(CC(CN)=C(F)F)c4=O)c(C)c3)cc2)cn1` [Example 290, 2-[2-(aminomethyl)-3,3-difluoro-allyl]-4-[5-[4-(1-ethylpyrazol-4-yl)phenyl]-3-methyl-2-pyridyl]-1,2,4-triazol-3-one Trifluoroacetate], the half-maximal inhibitory concentration (IC50) in assay [1] (1 mM putrescine substrate) is 2380 nM; in assay [2] (0.5 mM tyramine substrate) it was > 100000 nM; in assay [3] (1 mM benzylamine substrate), 1190 nM; on recombinant human VAP-1 (setting [5]), 0.7 nM.
For the compound `NCC(Cn1ncn(Cc2ccc(C#Cc3ccc4c(c3)CCC(=O)N4)s2)c1=O)=C(F)F` [Example 165, 6-[2-[5-[[1-[2-(aminomethyl)-3,3-difluoro-allyl]-5-oxo-1,2,4-triazol-4-yl]methyl]-2-thienyl]ethynyl]-3,4-dihydro-1H-quinolin-2-one Trifluoroacetate], the 50% inhibitory concentration (IC50) was > 10000 nM in assay [1] (1 mM putrescine), > 100000 nM in assay [2] (0.5 mM tyramine), 5900 nM in assay [3] (1 mM benzylamine) and 0.5 nM on recombinant human VAP-1 (setting [4]).
The like results for `CN(C)c1ccc(-c2ccc(-n3cnn(CC(CN)=C(F)F)c3=O)cc2F)cn1` [Example 27, 2-[2-(aminomethyl)-3,3-difluoro-allyl]-4-[4-[6-(dimethylamino)-3-pyridyl]-3-fluoro-phenyl]-1,2,4-triazol-3-one Trifluoroacetate] were, in that order, 380 nM, > 100000 nM, 350 nM and 0.4 nM.
